Biological target: T1, GajA (Bacillus cereus, UniProt J8H9C1)
T1 construct: full length residues 1-578, N-terminal 6xHis tag kept (pET28a, NdeI/NotI), expressed in E. coli BL21(DE3), 69 kDa with tag; without GajB
Assay: inhibition of lambda955 DNA cleavage, agarose gel densitometry
Format: biochemical
Conditions: 20 nM lambda955 DNA, 200 nM enzyme, 20 mM Tris-HCl pH 9, 1 mM MgCl2, 37 °C, 5 min; allosteric, ATPase-like domain

T1 sequence (J8H9C1 whole entry, the tested form may be a part): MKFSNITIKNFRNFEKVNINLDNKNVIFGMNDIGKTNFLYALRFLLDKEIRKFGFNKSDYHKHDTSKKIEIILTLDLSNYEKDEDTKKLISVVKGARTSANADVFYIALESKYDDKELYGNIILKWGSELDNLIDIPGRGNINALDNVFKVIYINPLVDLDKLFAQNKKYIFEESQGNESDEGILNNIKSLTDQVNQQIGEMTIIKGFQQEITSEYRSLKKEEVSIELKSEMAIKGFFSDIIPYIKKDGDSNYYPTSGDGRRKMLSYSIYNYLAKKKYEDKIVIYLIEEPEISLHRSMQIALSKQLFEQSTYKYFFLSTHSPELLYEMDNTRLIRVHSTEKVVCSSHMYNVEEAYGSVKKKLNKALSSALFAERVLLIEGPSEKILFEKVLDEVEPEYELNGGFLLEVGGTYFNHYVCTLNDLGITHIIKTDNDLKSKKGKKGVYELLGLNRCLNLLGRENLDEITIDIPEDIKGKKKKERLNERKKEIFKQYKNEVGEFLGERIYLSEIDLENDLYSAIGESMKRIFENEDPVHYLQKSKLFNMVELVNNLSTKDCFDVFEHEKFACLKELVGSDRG

SMILES: Nc1ncnc2c1ncn2[C@@H]1O[C@H](COP(=O)(O)OP(=O)(O)O)[C@@H](O)[C@H]1O [ADP]
- inhibition: strongly inhibited by all NTP and dNTP, even ADP, while AMP had no significant effect

Source: article PMC8136825, “A nucleotide-sensing endonuclease from the Gabija bacterial defense system” (Nucleic Acids Research, 2021)
